Data reported in the NIST ThermoML archive (doi:10.1016/j.fluid.2015.03.030).
± gives the expanded uncertainty stated by the source.

Assay: Boiling temperature at pressure P
Settings: Liquid, Ebulliometric method (Recirculating still)

O=C1OC(=O)c2cc(Cl)ccc21 [4-chlorophthalic anhydride]
Settings | Boiling temperature at pressure P [°C]
3.412 kPa | 174.12 ± 0.38
4.468 kPa | 181.16 ± 0.36
5.15 kPa | 184.99 ± 0.31
5.626 kPa | 187.38 ± 0.27
6.455 kPa | 191.23 ± 0.26
7.207 kPa | 194.4 ± 0.22
8.268 kPa | 198.19 ± 0.2
9.221 kPa | 201.31 ± 0.18
10.66 kPa | 205.62 ± 0.17
11.74 kPa | 208.48 ± 0.15
12.99 kPa | 211.60 ± 0.14
14.48 kPa | 214.97 ± 0.13
15.93 kPa | 217.97 ± 0.12
17.17 kPa | 220.36 ± 0.11
18.59 kPa | 222.89 ± 0.11
20.24 kPa | 225.72 ± 0.1
21.71 kPa | 228.1 ± 0.1
23.52 kPa | 230.67 ± 0.09
25.37 kPa | 233.31 ± 0.09
27.38 kPa | 235.90 ± 0.08
29.59 kPa | 238.67 ± 0.08
31.99 kPa | 241.41 ± 0.08
34.47 kPa | 244.18 ± 0.07
37.26 kPa | 247.0 ± 0.07
40.2 kPa | 249.76 ± 0.07
43.82 kPa | 252.96 ± 0.06
46.79 kPa | 255.48 ± 0.06
50.5 kPa | 258.40 ± 0.06
54.42 kPa | 261.32 ± 0.06
58.75 kPa | 264.30 ± 0.06
63.31 kPa | 267.29 ± 0.05
68.3 kPa | 270.4 ± 0.05
72.98 kPa | 273.1 ± 0.05
79.29 kPa | 276.50 ± 0.05
86.41 kPa | 280.09 ± 0.05
92.12 kPa | 282.82 ± 0.05
99.1 kPa | 286.02 ± 0.05
101 kPa | 287 ± 0.05

O=C1OC(=O)c2cc(F)ccc21 [5-fluoro-1,3-isobenzofurandione]
Settings | Boiling temperature at pressure P [°C]
3.549 kPa | 153.68 ± 0.36
4.301 kPa | 158.39 ± 0.32
5.517 kPa | 164.86 ± 0.28
6.582 kPa | 169.60 ± 0.23
7.86 kPa | 174.33 ± 0.21
8.973 kPa | 178.04 ± 0.18
10.5 kPa | 182.54 ± 0.16
12.25 kPa | 187.07 ± 0.15
13.2 kPa | 189.31 ± 0.13
15.16 kPa | 193.52 ± 0.12
17.63 kPa | 198.20 ± 0.11
18.81 kPa | 200.23 ± 0.1
21.16 kPa | 204.02 ± 0.1
23.05 kPa | 206.79 ± 0.09
26 kPa | 210.78 ± 0.08
31.21 kPa | 216.91 ± 0.08
36.41 kPa | 222.26 ± 0.07
40.95 kPa | 226.48 ± 0.07
45.02 kPa | 229.90 ± 0.06
47.3 kPa | 231.69 ± 0.06
48.21 kPa | 232.43 ± 0.06
51.3 kPa | 234.71 ± 0.06
53.29 kPa | 236.12 ± 0.06
55.87 kPa | 237.93 ± 0.06
57.3 kPa | 238.87 ± 0.06
59.62 kPa | 240.39 ± 0.06
65.49 kPa | 244.02 ± 0.06
69.16 kPa | 246.14 ± 0.05
73.58 kPa | 248.63 ± 0.05
78.49 kPa | 251.18 ± 0.05
85.68 kPa | 254.76 ± 0.05
90.57 kPa | 257.03 ± 0.05
93.83 kPa | 258.51 ± 0.05
96.02 kPa | 259.49 ± 0.05
97.24 kPa | 260.02 ± 0.05
101.21 kPa | 261.70 ± 0.05
